Measured values as given in PubChem BioAssay AID248 (DTP/NCI, 2004).
Where “and” joins values, the source holds several entries; their conditions need not be identical. Identical values can stand only once. Inconclusive results and toxic doses are left out. Rule as the data show it: active = T/C of 150% or more; inactive = T/C below 125%.

System: L1210 leukemia ip in BDF1 mice, survival T/C
Assay: NCI In Vivo Anticancer Drug Screen. Data for tumor model L1210 Leukemia (intraperitoneal) in B6D2F1 (BDF1) mice
Settings: higher = longer survival
How it was run: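 Ratio derived from survival: compound-dosed mice over vehicle-dosed mice, all bearing a transplantable tumor.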

[1] = endpoint: mean survival time, dose: 25.0 mg/kg/injection, schedule: Q04DX002 (ip), vehicle: saline
[2] = endpoint: mean survival time, dose: 50.0 mg/kg/injection, schedule: Q04DX002 (ip), vehicle: saline
[3] = endpoint: mean survival time, dose: 100.0 mg/kg/injection, schedule: Q04DX002 (ip), vehicle: Klucel (hydroxypropylcellulose) (HPC)
[4] = endpoint: mean survival time, dose: 100.0 mg/kg/injection, schedule: Q04DX002 (ip), vehicle: saline
[5] = endpoint: mean survival time, dose: 100.0 mg/kg/injection, schedule: Q01DX009 (ip), vehicle: Klucel (hydroxypropylcellulose) (HPC)
[6] = endpoint: mean survival time, dose: 100.0 mg/kg/injection, schedule: Q01DX001 (ip), vehicle: saline
[7] = endpoint: mean survival time, dose: 200.0 mg/kg/injection, schedule: Q01DX001 (ip), vehicle: saline
[8] = endpoint: mean survival time, dose: 400.0 mg/kg/injection, schedule: Q01DX001 (ip), vehicle: saline
[9] = endpoint: mean survival time, dose: 12.5 mg/kg/injection, schedule: Q01DX009 (ip), vehicle: Klucel (hydroxypropylcellulose) (HPC)
[10] = endpoint: mean survival time, dose: 25.0 mg/kg/injection, schedule: Q01DX009 (ip), vehicle: Klucel (hydroxypropylcellulose) (HPC)
[11] = endpoint: mean survival time, dose: 50.0 mg/kg/injection, schedule: Q01DX009 (ip), vehicle: Klucel (hydroxypropylcellulose) (HPC)

Measured: T/C

Cc1cncn1CC(=O)c1ccccc1
inactive: endpoint: mean survival time, dose: 25.0 mg/kg/injection, schedule: Q01DX009 (ip), vehicle: saline 104 % of control and 105 % of control | [1] 101 % of control and 105 % of control | endpoint: mean survival time, dose: 50.0 mg/kg/injection, schedule: Q01DX009 (ip), vehicle: saline 103 % of control and 104 % of control | [2] 101 % of control and 108 % of control | [3] 93 % of control | [4] 103 % of control

O=C(O)/C=C(/Oc1ccc(Cl)cc1)C(=O)O
inactive: endpoint: mean survival time, dose: 100.0 mg/kg/injection, schedule: Q04DX002 (ip), vehicle: other 93 % of control | endpoint: mean survival time, dose: 200.0 mg/kg/injection, schedule: Q04DX002 (ip), vehicle: other 103 % of control | endpoint: mean survival time, dose: 400.0 mg/kg/injection, schedule: Q04DX002 (ip), vehicle: other 100 % of control

COc1ccccc1NC(=O)Nc1ccc(C)c(C)c1
inactive: endpoint: mean survival time, dose: 100.0 mg/kg/injection, schedule: Q01DX009 (ip), vehicle: gum acacia 92 % of control | endpoint: mean survival time, dose: 100.0 mg/kg/injection, schedule: Q04DX003 (ip), vehicle: gum acacia 96 % of control | endpoint: mean survival time, dose: 200.0 mg/kg/injection, schedule: Q01DX009 (ip), vehicle: gum acacia 96 % of control | endpoint: mean survival time, dose: 200.0 mg/kg/injection, schedule: Q04DX003 (ip), vehicle: gum acacia 98 % of control | endpoint: mean survival time, dose: 400.0 mg/kg/injection, schedule: Q01DX009 (ip), vehicle: gum acacia 90 % of control | endpoint: mean survival time, dose: 400.0 mg/kg/injection, schedule: Q04DX003 (ip), vehicle: gum acacia 90 % of control

CC1(c2ccc(N(CCCl)CCCl)cc2)NC(=O)NC1=O (stereo unspecified)
inactive: endpoint: mean survival time, dose: 12.5 mg/kg/injection, schedule: Q04DX003 (ip), vehicle: saline 98 % of control | endpoint: mean survival time, dose: 25.0 mg/kg/injection, schedule: Q04DX003 (ip), vehicle: saline 103 % of control | endpoint: mean survival time, dose: 50.0 mg/kg/injection, schedule: Q04DX003 (ip), vehicle: saline 103 % of control | endpoint: mean survival time, dose: 100.0 mg/kg/injection, schedule: Q04DX003 (ip), vehicle: saline 113 % of control | endpoint: mean survival time, dose: 200.0 mg/kg/injection, schedule: Q04DX003 (ip), vehicle: saline 121 % of control

COc1c(NC(=O)Nc2ccc(F)c([N+](=O)[O-])c2)cccc1[N+](=O)[O-]
inactive: [5] 93 % of control | endpoint: mean survival time, dose: 200.0 mg/kg/injection, schedule: Q01DX009 (ip), vehicle: Klucel (hydroxypropylcellulose) (HPC) 101 % of control | endpoint: mean survival time, dose: 400.0 mg/kg/injection, schedule: Q01DX009 (ip), vehicle: Klucel (hydroxypropylcellulose) (HPC) 97 % of control

c1ccc(OB(Oc2ccccc2)Oc2ccccc2)cc1
inactive: [6] 95 % of control | [7] 95 % of control | [8] 106 % of control

c1cnc[c]([Hg][c]2cccnc2)c1
inactive: [9] 91 % of control | endpoint: mean survival time, dose: 12.5 mg/kg/injection, schedule: Q04DX002 (ip), vehicle: Klucel (hydroxypropylcellulose) (HPC) 98 % of control | [10] 88 % of control | endpoint: mean survival time, dose: 25.0 mg/kg/injection, schedule: Q04DX002 (ip), vehicle: Klucel (hydroxypropylcellulose) (HPC) 98 % of control | [11] 95 % of control | endpoint: mean survival time, dose: 50.0 mg/kg/injection, schedule: Q04DX002 (ip), vehicle: Klucel (hydroxypropylcellulose) (HPC) 103 % of control

O=C(NNC(=O)C1C2CCCCC21)C1C2CCCCC21 (stereo unspecified)
inactive: endpoint: mean survival time, dose: 100.0 mg/kg/injection, schedule: Q04DX003 (ip), vehicle: acetone 105 % of control | endpoint: mean survival time, dose: 200.0 mg/kg/injection, schedule: Q04DX003 (ip), vehicle: acetone 91 % of control | endpoint: mean survival time, dose: 400.0 mg/kg/injection, schedule: Q04DX003 (ip), vehicle: acetone 97 % of control

CSc1nc2c(N)ncnc2n1C1OC(CO)C(O)C1O (stereo unspecified)
inactive: endpoint: mean survival time, dose: 100.0 mg/kg/injection, schedule: Q01DX005 (ip), vehicle: saline 98 % of control | endpoint: mean survival time, dose: 200.0 mg/kg/injection, schedule: Q01DX005 (ip), vehicle: saline 101 % of control

O=[N+]([O-])c1ccc(O)cc1/C=N/Nc1nnc(N/N=C/c2cc(O)ccc2[N+](=O)[O-])c2ccccc12
inactive: endpoint: mean survival time, dose: 50.0 mg/kg/injection, schedule: Q01DX001 (ip), vehicle: saline 98 % of control | [6] 98 % of control | [7] 98 % of control | [8] 102 % of control

O=C1c2ccccc2C(=O)N1CNc1cccc(Cl)c1
inactive: endpoint: mean survival time, dose: 100.0 mg/kg/injection, schedule: Q01DX009 (ip), vehicle: saline with Tween-80 88 % of control | endpoint: mean survival time, dose: 100.0 mg/kg/injection, schedule: Q04DX002 (ip), vehicle: saline with Tween-80 102 % of control | endpoint: mean survival time, dose: 200.0 mg/kg/injection, schedule: Q01DX009 (ip), vehicle: saline with Tween-80 91 % of control | endpoint: mean survival time, dose: 200.0 mg/kg/injection, schedule: Q04DX002 (ip), vehicle: saline with Tween-80 105 % of control | endpoint: mean survival time, dose: 400.0 mg/kg/injection, schedule: Q04DX002 (ip), vehicle: saline with Tween-80 97 % of control

O=C(CCCc1ccc(N(CCCl)CCCl)cc1)OCCc1ccccc1
inactive: [1] 111 % of control | [2] 114 % of control | [4] 124 % of control | endpoint: mean survival time, dose: 200.0 mg/kg/injection, schedule: Q04DX002 (ip), vehicle: saline 112 % of control and 122 % of control | endpoint: mean survival time, dose: 400.0 mg/kg/injection, schedule: Q04DX002 (ip), vehicle: saline 112 % of control

NC(=S)N/N=C1\COC(C(F)(F)F)(C(F)(F)F)C1
inactive: [9] 100 % of control | [10] 97 % of control | [11] 96 % of control | [5] 97 % of control and 100 % of control | endpoint: mean survival time, dose: 100.0 mg/kg/injection, schedule: Q04DX003 (ip), vehicle: Klucel (hydroxypropylcellulose) (HPC) 103 % of control | endpoint: mean survival time, dose: 200.0 mg/kg/injection, schedule: Q04DX003 (ip), vehicle: Klucel (hydroxypropylcellulose) (HPC) 105 % of control

Cc1cccc(CN=C(N)CCl)n1
inactive: [3] 98 % of control | endpoint: mean survival time, dose: 200.0 mg/kg/injection, schedule: Q04DX002 (ip), vehicle: Klucel (hydroxypropylcellulose) (HPC) 95 % of control

NS(=O)(=O)c1cc2c(cc1Cl)NCNS2(=O)=O
inactive: endpoint: median survival time, dose: 125.0 mg/kg/injection, schedule: Q12HX016 (oral), vehicle: Klucel (hydroxypropylcellulose) (HPC) 95 % of control | endpoint: median survival time, dose: 125.0 mg/kg/injection, schedule: Q12HX022 (oral), vehicle: Klucel (hydroxypropylcellulose) (HPC) 94 % of control | endpoint: median survival time, dose: 250.0 mg/kg/injection, schedule: Q12HX016 (oral), vehicle: Klucel (hydroxypropylcellulose) (HPC) 93 % of control | endpoint: median survival time, dose: 250.0 mg/kg/injection, schedule: Q12HX022 (oral), vehicle: Klucel (hydroxypropylcellulose) (HPC) 98 % of control | endpoint: median survival time, dose: 500.0 mg/kg/injection, schedule: Q12HX016 (oral), vehicle: Klucel (hydroxypropylcellulose) (HPC) 93 % of control | endpoint: median survival time, dose: 500.0 mg/kg/injection, schedule: Q12HX022 (oral), vehicle: Klucel (hydroxypropylcellulose) (HPC) 98 % of control

CCN(CC)CCNCc1ccccc1
inactive: endpoint: mean survival time, dose: 25.0 mg/kg/injection, schedule: Q01DX003 (ip), vehicle: saline 99 % of control | endpoint: mean survival time, dose: 50.0 mg/kg/injection, schedule: Q01DX003 (ip), vehicle: saline 97 % of control | endpoint: mean survival time, dose: 75.0 mg/kg/injection, schedule: Q01DX003 (ip), vehicle: saline 99 % of control | endpoint: mean survival time, dose: 75.0 mg/kg/injection, schedule: Q04DX003 (ip), vehicle: saline 97 % of control

C(=N/N=C(/C(=N/N=C/c1ccccc1)c1ccccc1)c1ccccc1)\c1ccccc1
inactive: [6] 94 % of control | [7] 95 % of control | [8] 97 % of control

COC(=O)C12OCC34C(CC5C(C)=C(O)C(=O)CC5(C)C3C(O)C1O)OC(=O)C(OC(=O)/C=C(\C)C(C)(C)O)C24 (stereo unspecified)
inactive: endpoint: mean survival time, dose: 0.06 mg/kg/injection, schedule: Q01DX009 (ip), vehicle: saline with Tween-80 116 % of control | endpoint: mean survival time, dose: 0.5 mg/kg/injection, schedule: Q01DX009 (ip), vehicle: saline with Tween-80 112 % of control | endpoint: mean survival time, dose: 1.0 mg/kg/injection, schedule: Q01DX009 (ip), vehicle: saline with Tween-80 105 % of control | endpoint: mean survival time, dose: 2.0 mg/kg/injection, schedule: Q01DX009 (ip), vehicle: saline with Tween-80 107 % of control
